Results published in PubChem BioAssay (NCI).
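Method: 48-hour compound exposure of cells in 96-well plates, five concentrations, linear interpolation of endpoints. GI50 = concentration required for 50% inhibition of growth. Definition used: TGI = concentration required for complete inhibition of growth.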

Key:
Assay in all cases: NCI-60 cell line screen, 48 h
NCI-H522 lung = tested on: NCI-H522 lung
HCT-116 colon = tested on: HCT-116 colon
SNB-19 CNS = tested on: SNB-19 CNS
SK-OV-3 ovarian = tested on: SK-OV-3 ovarian
U251 CNS = tested on: U251 CNS
SK-MEL-2 melanoma = tested on: SK-MEL-2 melanoma
UACC-257 melanoma = tested on: UACC-257 melanoma
SF-295 CNS = tested on: SF-295 CNS
SF-268 CNS = tested on: SF-268 CNS
HOP-92 NSCLC = tested on: HOP-92 NSCLC
OVCAR-8 ovarian = tested on: OVCAR-8 ovarian
SN12C renal = tested on: SN12C renal
MDA-MB-435 = tested on: MDA-MB-435
SK-MEL-5 melanoma = tested on: SK-MEL-5 melanoma
IGROV1 ovarian = tested on: IGROV1 ovarian
HCC-2998 colon = tested on: HCC-2998 colon
HCT-15 colon = tested on: HCT-15 colon
MDA-MB-231 breast = tested on: MDA-MB-231 breast
TK-10 renal = tested on: TK-10 renal
NCI/ADR-RES ovarian = tested on: NCI/ADR-RES ovarian
SF-539 CNS = tested on: SF-539 CNS
ACHN renal = tested on: ACHN renal
NCI-H226 lung = tested on: NCI-H226 lung
MOLT-4 leukemia = tested on: MOLT-4 leukemia
HOP-62 NSCLC = tested on: HOP-62 NSCLC
HT29 colon = tested on: HT29 colon
T-47D breast = tested on: T-47D breast
A549 NSCLC = tested on: A549 NSCLC
COLO 205 colon = tested on: COLO 205 colon
HL-60(TB) leukemia = tested on: HL-60(TB) leukemia
OVCAR-5 ovarian = tested on: OVCAR-5 ovarian
OVCAR-3 ovarian = tested on: OVCAR-3 ovarian
MDA-N = tested on: MDA-N
PC-3 prostate = tested on: PC-3 prostate
M14 melanoma = tested on: M14 melanoma
BT-549 breast = tested on: BT-549 breast
RPMI-8226 leukemia = tested on: RPMI-8226 leukemia
786-0 renal = tested on: 786-0 renal
A498 renal = tested on: A498 renal
OVCAR-4 ovarian = tested on: OVCAR-4 ovarian
CAKI-1 renal = tested on: CAKI-1 renal
SNB-75 CNS = tested on: SNB-75 CNS
NCI-H460 lung = tested on: NCI-H460 lung
MCF7 breast = tested on: MCF7 breast
UO-31 renal = tested on: UO-31 renal
LOX IMVI melanoma = tested on: LOX IMVI melanoma
CCRF-CEM leukemia = tested on: CCRF-CEM leukemia
K-562 leukemia = tested on: K-562 leukemia
UACC-62 melanoma = tested on: UACC-62 melanoma
EKVX NSCLC = tested on: EKVX NSCLC
HS 578T breast = tested on: HS 578T breast
SW-620 colon = tested on: SW-620 colon
MALME-3M melanoma = tested on: MALME-3M melanoma
NCI-H23 lung = tested on: NCI-H23 lung
KM12 colon = tested on: KM12 colon
SK-MEL-28 melanoma = tested on: SK-MEL-28 melanoma
DU-145 prostate = tested on: DU-145 prostate

O=c1cc(-c2ccc(F)cc2)[nH]c2ncccc12
TGI (NCI-H522 lung): > 100 µM
GI50 (HCT-116 colon): 42.9 µM
TGI (HCT-116 colon): > 100 µM
TGI (SNB-19 CNS): > 100 µM
TGI (SK-OV-3 ovarian): > 100 µM
GI50 (U251 CNS): 48.2 µM
TGI (U251 CNS): > 100 µM
TGI (SK-MEL-2 melanoma): > 100 µM
TGI (UACC-257 melanoma): > 100 µM
GI50 (SF-295 CNS): 50 µM
TGI (SF-295 CNS): > 100 µM
TGI (SF-268 CNS): > 100 µM
TGI (HOP-92 NSCLC): > 100 µM
TGI (OVCAR-8 ovarian): > 100 µM
TGI (SN12C renal): > 100 µM
GI50 (MDA-MB-435): 12 µM
TGI (MDA-MB-435): 33 µM
GI50 (SK-MEL-5 melanoma): 30.3 µM
TGI (SK-MEL-5 melanoma): > 100 µM
TGI (IGROV1 ovarian): > 100 µM
TGI (HCC-2998 colon): > 100 µM
TGI (HCT-15 colon): > 100 µM
TGI (MDA-MB-231 breast): > 100 µM
TGI (TK-10 renal): > 100 µM
TGI (NCI/ADR-RES ovarian): > 100 µM
TGI (SF-539 CNS): > 100 µM
TGI (ACHN renal): > 100 µM
TGI (NCI-H226 lung): > 100 µM
TGI (MOLT-4 leukemia): > 100 µM
TGI (HOP-62 NSCLC): > 100 µM
TGI (HT29 colon): > 100 µM
TGI (T-47D breast): > 100 µM
TGI (A549 NSCLC): > 100 µM
TGI (COLO 205 colon): 60.3 µM
GI50 (HL-60(TB) leukemia): 12.9 µM
TGI (HL-60(TB) leukemia): 34.1 µM
TGI (OVCAR-5 ovarian): > 100 µM
GI50 (OVCAR-3 ovarian): 45.5 µM
TGI (OVCAR-3 ovarian): > 100 µM
GI50 (MDA-N): 14.1 µM
TGI (MDA-N): 35.9 µM
GI50 (PC-3 prostate): 46.1 µM
TGI (PC-3 prostate): > 100 µM
TGI (M14 melanoma): > 100 µM
TGI (BT-549 breast): > 100 µM
TGI (RPMI-8226 leukemia): > 100 µM
GI50 (786-0 renal): 44.3 µM
TGI (786-0 renal): > 100 µM
TGI (A498 renal): > 100 µM
TGI (OVCAR-4 ovarian): > 100 µM
TGI (CAKI-1 renal): > 100 µM
TGI (SNB-75 CNS): 81.1 µM
GI50 (NCI-H460 lung): 34.7 µM
TGI (NCI-H460 lung): > 100 µM
TGI (MCF7 breast): > 100 µM
TGI (UO-31 renal): > 100 µM
TGI (LOX IMVI melanoma): > 100 µM
TGI (CCRF-CEM leukemia): > 100 µM
TGI (K-562 leukemia): > 100 µM
TGI (UACC-62 melanoma): > 100 µM
TGI (EKVX NSCLC): > 100 µM
TGI (HS 578T breast): > 100 µM
TGI (SW-620 colon): > 100 µM
TGI (MALME-3M melanoma): > 100 µM
TGI (NCI-H23 lung): > 100 µM
TGI (KM12 colon): > 100 µM
TGI (SK-MEL-28 melanoma): > 100 µM
TGI (DU-145 prostate): > 100 µM
